Laboratory results reported in ChEMBL document CHEMBL1141441, “Crystallographic investigation of the inhibition mode of a VIM-2 metallo-beta-lactamase from Pseudomonas aeruginosa by a mercaptocarboxylate inhibitor” (J Med Chem, 2007).

Assay: Inhibition of IMP1 expressed in Escherichia coli BL21 (DE3)

In the case of `O=C(O)C(CS)CCCc1ccccc1` (racemic), the Ki is reported as 1660 nM.
